Results: patent US10335409B2 (priority 2012, dated 2019)
Read-outs that look alike come from different tables or passages of the source.

Assays:
Format in all cases: cell-based, hepatitis C virus
[1] = system: genotype 1b NS3/4a protease inhibitor resistant variant D168A transient HCV replicon in Huh-7-derived cells; experiment: Transient-transfected HCV replicon EC50, genotype 1b D168A; settings: Hepatitis C virus, 72 h, read-out: EC50 1B D168A, transient-transfected replicon genotype 1b D168A resistant variant, 72 h
[2] = system: genotype 2a (JFH-1) stable HCV replicon in Huh-7-derived cells; experiment: Stable subgenomic HCV replicon EC50, genotype 2a (Renilla luciferase); settings: Hepatitis C virus, stable replicon genotype 2a, 72 h, read-out: EC50 2A RLUC
Experimental: (§1) Antiviral potency (EC50) was determined in both stable subgenomic HCV replicon cell lines and transient-transfected HCV replicon cells. The term half maximal effective concentration (EC50) refers to the concentration of a drug which induces a response halfway between the baseline and maximum after the exposure time specified below.
(§2) Stable subgenomic HCV replicons for genotype 1a, 1b, 2a, 3a, and 4a were established in Huh-7-derived cells as described by Lohmann et al (Lohmann V, Korner F, Koch J, et al Replication of subgenomic hepatitis C virus RNAs in a hepatoma cell line. Science 1999; 285:119-3) Each stable cell line contains a bicistronic HCV replicon that encodes a humanized Renilla luciferase (hRLuc) reporter gene fused to a selectable neomycin-resistance gene, followed by an EMCV IRES and the NS3-NS5B coding region of HCV. […] Luciferase activity was measured as a marker for intracellular HCV replication levels.
(§3) The genotype 1a stable replicon was derived from the H77 HCV strain and contained adaptive mutations P1496L and S2204I. The genotype 1b stable replicon was derived from the Con1 HCV strain and contained adaptive mutations E1202G, T1280I and K1846T. […] The genotype 3a stable replicon was derived from the S52 HCV strain and contained adaptive mutations P1121L, A1198T and S2210I (equivalent to S2204I in genotype 1). The genotype 4a stable replicon was derived from the ED43 HCV strain and contained adaptive mutations Q1691R and S2204I. All replicon cell lines were propagated in Huh-7-derived cells and maintained in Dulbecco's modified Eagle's Medium (DMEM) supplemented with 10% fetal bovine serum (FBS) and 0.5 mg/mL G418.
(§4) To perform EC50 assays, cells from each HCV replicon were dispensed into 384-well plates. Compounds were dissolved in DMSO at a concentration of 10 mM and diluted in DMSO using an automated pipetting instrument. Three-fold serially diluted compounds were directly added to the cells using an automated instrument. […] Seventy-two hours later, cells were lysed and Renilla luciferase activity were quantified as recommended by the manufacturer (Promega-Madison, Wis.). Non-linear regression was performed to calculate EC50 values.

[3] = system: genotype 1b (Con1) stable HCV replicon in Huh-7-derived cells; experiment: Stable subgenomic HCV replicon EC50, genotype 1b (Renilla luciferase); settings: Hepatitis C virus, stable replicon genotype 1b, 72 h, read-out: EC50 1B RLUC
Experimental: as §1, §2, §3, §4

[4] = system: genotype 1b (Con1) wild type transient HCV replicon in Huh-7-derived cells; experiment: Transient-transfected HCV replicon EC50, genotype 1b wild type; settings: Hepatitis C virus, 72 h, read-out: EC50 1B WT
[5] = system: genotype 1a (H77) stable HCV replicon in Huh-7-derived cells; experiment: Stable subgenomic HCV replicon EC50, genotype 1a (Renilla luciferase); settings: Hepatitis C virus, stable replicon genotype 1a, 72 h, read-out: EC50 1A RLUC
Experimental: as §1, §2, §3, §4

[6] = system: genotype 3a (S52) stable HCV replicon in Huh-7-derived cells; experiment: Stable subgenomic HCV replicon EC50, genotype 3a (Renilla luciferase); settings: Hepatitis C virus, 72 h, read-out: EC50 3A RLUC
Experimental: as §1, §2, §3, §4

[7] = system: genotype 1a NS3/4a protease inhibitor resistant variant R155K transient HCV replicon in Huh-7-derived cells; experiment: Transient-transfected HCV replicon EC50, genotype 1a R155K; settings: Hepatitis C virus, 72 h, read-out: EC50 1A R155K, transient-transfected replicon genotype 1a R155K resistant variant, 72 h
[8] = system: genotype 4a (ED43) stable HCV replicon in Huh-7-derived cells; experiment: Stable subgenomic HCV replicon EC50, genotype 4a (Renilla luciferase); settings: Hepatitis C virus, 72 h, read-out: EC50 4A RLUC
Experimental: as §1, §2, §3, §4

[9] = system: genotype 1a (H77) wild type transient HCV replicon in Huh-7-derived cells; experiment: Transient-transfected HCV replicon EC50, genotype 1a wild type; settings: Hepatitis C virus, 72 h, read-out: EC50 1A WT
[10] = transient-transfected replicon genotype 1b wild type
[11] = transient-transfected replicon genotype 1a wild type

Row | Compound | EC50 [1] [nM] | EC50 [2] [nM] | EC50 [3] [nM] | EC50 [4] [nM] | EC50 [5] [nM] | EC50 [6] [nM] | EC50 [7] [nM] | EC50 [8] [nM] | EC50 [9] [nM] | EC50 [4, 10] [nM] | EC50 [9, 11] [nM]
1 | CC[C@@H]1[C@@H]2CN(C(=O)[C@H](C3CCCC3)NC(=O)O[C@@H]3C[C@H]3CCCCCc3nc4ccc(OC)cc4nc3O2)[C@@H]1C(=O)N[C@]1(C(=O)NS(=O)(=O)C2CC2)C[C@H]1C(F)F [Example 15, (1aR,5S,8S,9S,10R,22aR)-5-cyclopentyl-N-[(1R,2R)-1-[(cyclopropylsulfonyl)carbamoyl]-2-(difluoromethyl)cyclopropyl]-9-ethyl-14-methoxy-3,6-dioxo-1,1a,3,4,5,6,9,10,18,19,20,21,22,22a-tetradecahydro-8H-7,10-methanocyclopropa[18,19][1,10,3,6]dioxadiazacyclononadecino[11,12-b]quinoxaline-8-carboxamide] | 182 | 9.8 | 6.8 | 3 | 11 | 550 | 20 | 7.8 | 6.5 | – | –
2 | COc1ccc2nc3c(nc2c1)O[C@H]1CN(C(=O)[C@H](C(C)(C)C)NC(=O)O[C@@H]2C[C@H]2CCCCC3)[C@H](C(=O)N[C@]2(C(=O)NS(=O)(=O)C3(C)CC3)C[C@H]2CC(F)F)[C@@H]1C [Example 25, (1aR,5S,8S,9S,10R,22aR)-5-tert-butyl-N-[(1R,2S)-2-(2,2-difluoroethyl)-1-{[(1-methylcyclopropyl)sulfonyl]carbamoyl}cyclopropyl]-14-methoxy-9-methyl-3,6-dioxo-1,1a,3,4,5,6,9,10,18,19,20,21,22,22a-tetradecahydro-8H-7,10-methanocyclopropa[18,19][1,10,3,6]dioxadiazacyclononadecino[11,12-b]quinoxaline-8-carboxamide] | 116 | 13 | 6.3 | – | 8.8 | 409 | 17 | 7.1 | – | 3.6 | 4.4
3 | CC[C@@H]1C[C@]1(NC(=O)[C@@H]1[C@H](C)[C@@H]2CN1C(=O)[C@H](C(C)(C)C)NC(=O)O[C@@H]1C[C@H]1CCCCCc1nc3ccc(OC)cc3nc1O2)C(=O)NS(=O)(=O)C1CC1 [Example 20, (1aR,5S,8S,9S,9S,10R,22aR)-5-tert-butyl-N-{(1R,2R)-1-[(cyclopropylsulfonyl)carbamoyl]-2-ethylcyclopropyl}-14-methoxy-9-methyl-3,6-dioxo-1,1a,3,4,5,6,9,10,18,19,20,21,22,22a-tetradecahydro-8H-7,10-methanocyclopropa[18,19][1,10,3,6]dioxadiazacyclononadecino[11,12-b]quinoxaline-8-carboxamide] | 90 | 19 | 5.2 | 2.7 | 8.1 | 392 | 17 | 5.9 | 3.4 | – | –
4 | CC[C@@H]1[C@@H]2CN(C(=O)[C@H](C(C)(C)C)NC(=O)O[C@@H]3C[C@H]3CCCCCc3nc4ccc(OC)cc4nc3O2)[C@@H]1C(=O)N[C@]1(C(=O)NS(=O)(=O)C2CC2)C[C@H]1C(F)F [Example 2, (1aR,5S,8S,9S,10R,22aR)-5-tert-butyl-N-[(1R,2R)-1-[(cyclopropylsulfonyl)carbamoyl]-2-(difluoromethyl)cyclopropyl]-9-ethyl-14-methoxy-3,6-dioxo-1,1a,3,4,5,6,9,10,18,19,20,21,22,22a-tetradecahydro-8H-7,10-methanocyclopropa[18,19][1,10,3,6]dioxadiazacyclononadecino[11,12-b]quinoxaline-8-carboxamide] | 33 | 3.9 | 3.1 | – | 4 | 77 | 7 | 2.7 | – | 1 | 2.4
5 | COc1ccc2nc3c(nc2c1)O[C@H]1CN(C(=O)[C@H](C(C)(C)C)NC(=O)O[C@@H]2C[C@H]2CCCCC3)[C@H](C(=O)N[C@]2(C(=O)NS(=O)(=O)C3CC3)C[C@H]2CCF)[C@@H]1C [Example 22, (1aR,5S,8S,9S,10R,22aR)-5-tert-butyl-N-[(1R,25)-1-[(cyclopropylsulfonyl)carbamoyl]-2-(2-fluoroethyl)cyclopropyl]-14-methoxy-9-methyl-3,6-dioxo-1,1a,3,4,5,6,9,10,18,19,20,21,22,22a-tetradecahydro-8H-7,10-methanocyclopropa[18,19][1,10,3,6]dioxadiazacyclononadecino[11,12-b]quinoxaline-8-carboxamide] | 242 | 27 | 7.5 | – | 15 | 727 | 48 | 11 | – | 2.6 | 8.6
6 | COc1ccc2nc3c(nc2c1)O[C@H]1CN(C(=O)[C@H](C(C)(C)C)NC(=O)O[C@@H]2C[C@H]2CCCCC3)[C@H](C(=O)N[C@]2(C(=O)NS(=O)(=O)C3CC3)C[C@H]2CC(F)F)[C@@H]1C [Example 24, (1aR,5S,8S,9S,10R,22aR)-5-tert-butyl-N-[(1R,2S)-1-[(cyclopropylsulfonoyl)carbamoyl]-2-(2,2-difluoroethyl)cyclopropyl]-14-methoxy-9-methyl-3,6-dioxo-1,1a,3,4,5,6,9,10,18,19,20,21,22,22a-tetradecahydro-8H-7,10-methanocyclopropa[18,19][1,10,3,6]dioxadiazacyclononadecino[11,12-b]quinoxaline-8-carboxamide] | 284 | 20 | 7.5 | – | 12 | 663 | 49 | 9.2 | – | 3.2 | 9.3
7 | CC[C@@H]1C[C@]1(NC(=O)[C@@H]1[C@H](C)[C@@H]2CN1C(=O)[C@H](C(C)(C)C)NC(=O)O[C@@H]1C[C@H]1CCCCCc1nc3ccc(OC)cc3nc1O2)C(=O)NS(=O)(=O)C1(C)CC1 [Example 21, (1aR,5S,8S,9S,10R,22aR)-5-tert-butyl-N-[(1R,2R)-2-ethyl-1-{[(1-methylcyclopropyl)sulfonyl]carbamoyl}cyclopropyl]-14-methoxy-9-methyl-3,6-dioxo-1,1a,3,4,5,6,9,10,18,19,20,21,22,22a-tetradecahydro-8H-7,10-methanocyclopropa[18,19][1,10,3,6]dioxadiazacyclononadecino[11,12-b]quinoxaline-8-carboxamide] | 70 | 12 | 4.7 | 3.8 | 6.8 | 263 | 15 | 6.2 | 4.1 | – | –
8 | CC[C@@H]1[C@@H]2CN(C(=O)[C@H](C(C)(C)C)NC(=O)O[C@@]3(C)C[C@@H]3CCCCCc3nc4ccc(OC)cc4nc3O2)[C@@H]1C(=O)N[C@]1(C(=O)NS(=O)(=O)C2(C)CC2)C[C@H]1C(F)F [Example 8, (1aS,5S,8S,9S,10R,22aS)-5-tert-butyl-N-[(1R,2R)-2-(difluoromethyl)-1-{[(1-methylcyclopropyl)sulfonyl]carbamoyl}cyclopropyl]-9-ethyl-14-methoxy-1a-methyl-3,6-dioxo-1,1a,3,4,5,6,9,10,18,19,20,21,22,22a-tetradecahydro-8H-7,10-methanocyclopropa[18,19][1,10,3,6] dioxadiazacyclononadecino[11,12-b]quinoxaline-8-carboxamide] | 89 | 20 | 8.6 | – | 16 | 465 | 28 | 13 | – | 4.8 | 8.8
